# Measured values published in PMC3046181, “Elimination of Endogenous Toxin, Creatinine from Blood Plasma Depends on Albumin Conformation: Site Specific Uremic Toxicity & Impaired Drug Binding” (PLoS ONE, 2011).
# Molecular target: T1, Human serum albumin (HSA) (Homo sapiens, UniProt P02768)
# T1 construct: gene ALB; commercial native serum albumin (Sigma), essentially fatty acid free and globulin free; monomer
# Test: isothermal titration calorimetry, single set of identical sites
# Assay type: binding
# Details: read-out: Ka[M^-1] / ITC ^a (converted)
# From the text: isothermal titration calorimetry, single set of identical sites on Human serum albumin (HSA)
# T1 sequence (P02768 25-609): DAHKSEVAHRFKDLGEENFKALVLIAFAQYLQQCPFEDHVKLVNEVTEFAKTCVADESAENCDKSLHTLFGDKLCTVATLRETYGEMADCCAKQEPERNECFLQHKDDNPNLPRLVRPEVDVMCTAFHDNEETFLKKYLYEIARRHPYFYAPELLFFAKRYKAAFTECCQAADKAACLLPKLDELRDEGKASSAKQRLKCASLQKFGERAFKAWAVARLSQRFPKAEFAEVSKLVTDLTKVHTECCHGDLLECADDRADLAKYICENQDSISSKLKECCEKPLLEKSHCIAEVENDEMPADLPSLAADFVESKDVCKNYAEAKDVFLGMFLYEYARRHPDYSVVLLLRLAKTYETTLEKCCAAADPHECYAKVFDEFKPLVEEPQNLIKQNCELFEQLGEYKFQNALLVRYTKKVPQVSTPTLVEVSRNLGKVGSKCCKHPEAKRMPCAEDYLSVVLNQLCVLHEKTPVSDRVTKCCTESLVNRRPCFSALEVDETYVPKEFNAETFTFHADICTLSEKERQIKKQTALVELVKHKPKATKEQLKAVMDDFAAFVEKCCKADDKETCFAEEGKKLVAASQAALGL
smiles,measurement,value
"CN1CC(=O)NC1=N [creatinine, 2-Amino-1-methyl-5H-imidazol-4-one]",Kd,11.2 µM
